“And” between values parts separate entries of the source, which are not always exact repeats. Equal entries are not always repeated.
Key:
[1] = target: SARS-CoV-2 Main Protease (SARS-CoV-2) (UniProt P0DTD1)
[2] = in vivo, iv, 0.5 mg/kg
[3] = not given; remark: listed apart in the source

| Compound | IC50 [1] | AUC(0-inf) ([2]; rat) | AUC(0-t) ([2]; rat) | C0 ([2]; rat) | MRT inf ([2]; rat) | MRT last ([2]; rat) | Vd ([2]; rat) | clearance ([2]; rat) | half-life ([2]; rat) | CC50 ([3]; a549) | other results |
| --- | --- | --- | --- | --- | --- | --- | --- | --- | --- | --- | --- |
| O=C1CC(C(=O)Nc2cncc3ccccc23)c2cc(Cl)c(Cl)cc2N1 (configuration not stated) | 196 nM and 356 nM | – | – | – | – | – | – | – | – | – | AUC(0-inf) ([2]; mouse): 199 ng·h/mL and 230 ng·h/mL; AUC(0-t) ([2]; mouse): 197 ng·h/mL and 226 ng·h/mL; C0 ([2]; mouse): 268 ng/mL and 390 ng/mL; MRT inf ([2]; mouse): 44.9 min and 49.9 min; MRT last ([2]; mouse): 42.4 min and 45.4 min; Vd ([2]; mouse): 1.88 L/kg and 1.81 L/kg; clearance ([2]; mouse): 41.9 mL/min/kg and 36.2 mL/min/kg; half-life ([2]; mouse): 34.4 min and 43.6 min |
| O=C(Nc1cncc2c1CCCC2)C1CCNc2cc(Cl)c(Cl)cc21 (configuration not stated) | – | – | – | – | – | – | – | – | – | – | logD: 3.9 |
| O=C(Cc1cccc(Cl)c1)Nc1cncc2cc[nH]c12 | 1900 nM | 129 ng·h/mL and 176 ng·h/mL and 114 ng·h/mL | 128 ng·h/mL and 172 ng·h/mL and 113 ng·h/mL | 320 ng/mL and 470 ng/mL and 344 ng/mL | 29.9 min and 38.2 min and 23 min | 35.3 min and 27 min and 21.6 min | 2.47 L/kg and 1.46 L/kg and 2.1 L/kg | 64.5 mL/min/kg and 48.4 mL/min/kg and 91.1 mL/min/kg | 42.8 min and 22.7 min and 19.5 min | – | – |
| COC(=O)C1(NC(=O)C(c2cccnc2)N(C(=O)c2cocn2)c2ccc(C(C)(C)C)cc2)CCCC1 (configuration not stated) | 5260 nM | – | – | – | – | – | – | – | – | – | CC50 ([3]; vero): > 10000 nM |
| COc1ccc2cncc(NC(=O)[C@H]3CCNc4cc(Cl)c(Cl)cc43)c2c1 (stereo in doubt) | < 50 nM and 82.3 nM and 53.6 nM | – | – | – | – | – | – | – | – | – | AUC(0-inf) ([2]; mouse): 113 ng·h/mL and 130 ng·h/mL; AUC(0-t) ([2]; mouse): 113 ng·h/mL and 128 ng·h/mL; C0 ([2]; mouse): 179 ng/mL and 202 ng/mL; MRT inf ([2]; mouse): 28.6 min and 30.8 min; MRT last ([2]; mouse): 27.6 min and 28.9 min; Vd ([2]; mouse): 2.09 L/kg and 1.97 L/kg; clearance ([2]; mouse): 73.4 mL/min/kg and 64 mL/min/kg; half-life ([2]; mouse): 16.1 min and 19.4 min |
| O=C(Cc1ccc(Cl)c(Cl)c1)Nc1cncc2cnccc12 | 1850 nM | – | – | – | – | – | – | – | – | > 9990 nM | – |
| COC1(C(=O)Nc2cncc3ccc(S(C)(=O)=O)cc23)CCOc2ccc(Cl)cc21 (configuration not stated) | 426 nM and 423 nM | – | – | – | – | – | – | – | – | – | AUC(0-inf) ([2]; mouse): 51.9 ng·h/mL and 61.9 ng·h/mL; AUC(0-t) ([2]; mouse): 50.3 ng·h/mL; C0 ([2]; mouse): 142 ng/mL and 157 ng/mL; MRT inf ([2]; mouse): 31.3 min and 26.9 min; MRT last ([2]; mouse): 27.4 min and 24.5 min; Vd ([2]; mouse): 5.03 L/kg and 3.65 L/kg; clearance ([2]; mouse): 161 mL/min/kg and 135 mL/min/kg; half-life ([2]; mouse): 25.3 min and 22.1 min |
| COC(=O)[C@@H]1C[C@@H](NC(=O)C(c2cccnc2)N(C(=O)c2cocn2)c2ccc(C(C)(C)C)cc2)CN1C(=O)OC(C)(C)C (stereo in doubt) | 6820 nM | – | – | – | – | – | – | – | – | – | CC50 ([3]; vero): > 10000 nM |
| O=C1NCC(C(=O)Nc2cncc3ccccc23)c2cc(Cl)ccc21 (configuration not stated) | 208 nM | 377 ng·h/mL and 428 ng·h/mL and 182 ng·h/mL | 374 ng·h/mL and 422 ng·h/mL and 180 ng·h/mL | 443 ng/mL and 648 ng/mL and 439 ng/mL | 57.1 min and 75 min and 37.4 min | 71.4 min and 53 min and 35 min | 1.66 L/kg and 1.12 L/kg and 1.75 L/kg | 22.1 mL/min/kg and 19.5 mL/min/kg and 46.8 mL/min/kg | 64.8 min and 52 min and 34.7 min | – | – |
| CS(=O)(=O)N1Cc2ccc(Cl)cc2C(C(=O)Nc2cncc3c2CCCC3)C1 (configuration not stated) | 642 nM | 196 ng·h/mL and 264 ng·h/mL | 195 ng·h/mL and 262 ng·h/mL | 541 ng/mL and 625 ng/mL | 35.6 min and 31 min | 29.8 min and 34 min | 1.32 L/kg and 1.14 L/kg | 42.5 mL/min/kg and 33 mL/min/kg | 30.6 min and 25.6 min | – | – |
| CS(=O)(=O)N1Cc2ccc(Cl)cc2[C@H](C(=O)Nc2cncc3ccccc23)C1 (stereo in doubt) | – | – | – | – | – | – | – | – | – | – | logD: 2.2 |
| CC1Cn2nccc2CN1C(=O)CC1(C(=O)Nc2cncc3ccccc23)CCOc2ccc(Cl)cc21 (configuration not stated) | 1560 nM and 2850 nM | – | – | – | – | – | – | – | – | > 9990 nM | – |
| O=C(Cc1cccc(Cl)c1)Nc1cncc2cc(F)ccc12 | 1470 nM | – | – | – | – | – | – | – | – | > 9990 nM | – |
| N#CCC(=O)N1Cc2ccc(Cl)cc2C(C(=O)Nc2cncc3ccccc23)C1 (configuration not stated) | 204 nM | 128 ng·h/mL and 148 ng·h/mL | 124 ng·h/mL and 144 ng·h/mL | 404 ng/mL and 370 ng/mL | 28.7 min and 29.3 min | 24.5 min and 25.6 min | 1.61 L/kg and 1.36 L/kg | 54.8 mL/min/kg and 47.4 mL/min/kg | 25.4 min and 22 min | – | – |
| O=C(Cn1nc2n(c(=O)c1=O)CCC2)NC(C(=O)Nc1cncc2ccccc12)c1cccc(Cl)c1 (configuration not stated) | – | – | – | – | – | – | – | – | – | – | CC50 ([3]; vero): > 9990 nM |
| O=C(Nc1cncc2ccccc12)C(O)c1ccc(Cl)c(Cl)c1 (configuration not stated) | 2010 nM | – | – | – | – | – | – | – | – | > 9990 nM | – |
| O=C(Nc1cncc2cc(Cl)ccc12)C1CCS(=O)(=O)c2ccc(Cl)cc21 (configuration not stated) | 838 nM | 2140 ng·h/mL and 2940 ng·h/mL | 1940 ng·h/mL and 2700 ng·h/mL | 769 ng/mL and 1200 ng/mL | 193 min and 199 min | 148 min and 151 min | 0.774 L/kg and 0.556 L/kg | 3.9 mL/min/kg and 2.9 mL/min/kg | 141 min and 133 min | – | – |

| Compound | IC50 [1] | AUC(0-inf) ([2]; rat) | AUC(0-t) ([2]; rat) | C0 ([2]; rat) | MRT inf ([2]; rat) | MRT last ([2]; rat) | Vd ([2]; rat) | clearance ([2]; rat) | half-life ([2]; rat) | CC50 ([3]; a549) | other results |
| --- | --- | --- | --- | --- | --- | --- | --- | --- | --- | --- | --- |
| O=C(Nc1cncc2ccccc12)C(NC(=O)[C@@H]1CCCO1)c1cccc(Cl)c1 (stereo in doubt) | 2290 nM | – | – | – | – | – | – | – | – | > 9990 nM | – |
| N#Cc1cc(Cl)cc2c1NCCC2C(=O)Nc1cncc2ccccc12 (configuration not stated) | 242 nM | – | – | – | – | – | – | – | – | > 9990 nM | – |
| O=C(Nc1cncc2cc(F)ccc12)C1CCS(=O)(=O)c2ccc(Cl)cc21 (configuration not stated) | 770 nM | 875 ng·h/mL and 1050 ng·h/mL | 869 ng·h/mL and 1030 ng·h/mL | 655 ng/mL and 704 ng/mL | 118 min and 107 min | 104 min and 111 min | 1.03 L/kg and 0.95 L/kg | 9.52 mL/min/kg and 8.12 mL/min/kg | 69.6 min and 78 min | – | – |
| Cc1cc2c(NC(=O)C3CCOc4ccc(Cl)cc43)cncc2s1 (configuration not stated) | 228 nM | 122 ng·h/mL and 130 ng·h/mL | 118 ng·h/mL and 128 ng·h/mL | 342 ng/mL and 378 ng/mL | 26.3 min and 28.9 min | 25.1 min and 24.1 min | 1.76 L/kg and 1.52 L/kg | 60.8 mL/min/kg and 58 mL/min/kg | 22.4 min and 25 min | – | – |
| O=C(Nc1cncc2ccncc12)C1CCNc2cc(Cl)c(Cl)cc21 (configuration not stated) | – | – | – | – | – | – | – | – | – | > 9990 nM | – |
| O=C(Cc1cccc(Cl)c1)Nc1cncc2c(F)cccc12 | 890 nM | 140 ng·h/mL and 138 ng·h/mL | 139 ng·h/mL and 136 ng·h/mL | 515 ng/mL and 498 ng/mL | 19.8 min and 20.1 min | 19.1 min and 18.7 min | 1.02 L/kg | 50.8 mL/min/kg and 51.6 mL/min/kg | 17.4 min and 18.2 min | – | – |
| COc1cccc2[nH]c(=O)cc(C(=O)NCCOc3ccccc3OCC3CC3)c12 | – | – | – | – | – | – | – | – | – | > 10000 nM | – |
| N#Cc1ncc(NC(=O)Cc2cccc(Cl)c2)c2ccccc12 | 65900 nM | 242 ng·h/mL and 224 ng·h/mL | 241 ng·h/mL and 222 ng·h/mL | 809 ng/mL and 728 ng/mL | 28.6 min and 29.3 min | 28.2 min and 26.5 min | 1.17 L/kg and 1.23 L/kg | 39.9 mL/min/kg and 43.2 mL/min/kg | 35.3 min and 42.1 min | – | – |
| CC1CN(S(C)(=O)=O)CCC1NC(=O)CC1(C(=O)Nc2cncc3ccccc23)CCOc2ccc(Cl)cc21 (configuration not stated) | 2790 nM | – | – | – | – | – | – | – | – | > 9990 nM | – |
| CC(C)(C)c1ccc(N(C(=O)c2cocn2)C(C(=O)NCC2CCCO2)c2cccnc2)cc1 (configuration not stated) | 5150 nM | – | – | – | – | – | – | – | – | – | CC50 ([3]; vero): > 10000 nM |
| CC1(C(=O)Nc2cncc3ccc(S(C)(=O)=O)cc23)CNC(=O)c2ccc(Cl)cc21 (configuration not stated) | 6620 nM | 304 ng·h/mL and 309 ng·h/mL | 292 ng·h/mL and 303 ng·h/mL | 660 ng/mL and 636 ng/mL | 38.1 min and 34.1 min | 29.1 min and 35 min | 1.08 L/kg and 1.19 L/kg | 31.8 mL/min/kg and 32.2 mL/min/kg | 26.9 min and 30.5 min | – | – |
| O=C(Cc1cccc(Cl)c1)Nc1cnccc1C1CC1 | 7170 nM | 77 ng·h/mL and 54.5 ng·h/mL | 74.1 ng·h/mL and 53.2 ng·h/mL | 260 ng/mL and 176 ng/mL | 20.7 min and 17.8 min | 15.4 min and 18.5 min | 1.92 L/kg and 3.14 L/kg | 108 mL/min/kg and 153 mL/min/kg | 12.5 min and 15.8 min | – | – |
| NC(=O)c1cc2c(NC(=O)C3CCOc4ccc(Cl)cc43)cncc2s1 (configuration not stated) | 761 nM | 488 ng·h/mL and 612 ng·h/mL | 485 ng·h/mL and 604 ng·h/mL | 706 ng/mL and 898 ng/mL | 77.4 min and 69 min | 65.4 min and 70.2 min | 1.18 L/kg and 1.06 L/kg | 17.1 mL/min/kg and 13.7 mL/min/kg | 75 min and 84 min | – | – |
| CS(=O)(=O)N1Cc2ccc(Cl)cc2C(C(=O)Nc2cncc3ccccc23)C1 (configuration not stated) | – | – | – | – | – | – | – | – | – | – | AUC(0-inf) ([2]; mouse): 125 ng·h/mL and 139 ng·h/mL; AUC(0-t) ([2]; mouse): 124 ng·h/mL and 138 ng·h/mL; C0 ([2]; mouse): 399 ng/mL and 588 ng/mL; MRT inf ([2]; mouse): 21.6 min and 18.2 min; MRT last ([2]; mouse): 20.8 min and 17.6 min; Vd ([2]; mouse): 1.4 L/kg and 1.06 L/kg; clearance ([2]; mouse): 64.9 mL/min/kg and 59 mL/min/kg; half-life ([2]; mouse): 16.7 min |
| O=C(Cc1cc(F)cc(Cl)c1)Nc1cncc2ccccc12 | 368 nM and 398 nM | – | – | – | – | – | – | – | – | > 9990 nM | – |
| COCCN1CCC(C(=O)Nc2cncc3ccccc23)c2cc(Cl)ccc21 (configuration not stated) | 564 nM | – | – | – | – | – | – | – | – | > 9990 nM | – |
